# Tested on: P12-Ichikawa
# Test: cell viability relative to DMSO control; higher = less cytotoxic
# Conditions: 48 h
# In short: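 NOMO1 or SEM cells were plated at 500 cells/well and P12-Ichikawa cells at 1000 cells/well in 1536-well plates (5 μl), after each leukemia line had been adapted for at least four passages in each medium. Pin dosing delivered library compounds in DMSO at 11 threefold concentrations, 47 μM to 0.79 nM. CellTiter-Glo One luminescence was read after 48 h at 37°C. Viability is reported as a per-plate percentage of DMSO wells, with cell-free wells as background.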
# [1] = HPLM + 10% dialyzed FBS, 0.000781 µM
# [2] = HPLM + 10% dialyzed FBS, 0.00234 µM
# [3] = HPLM + 10% dialyzed FBS, 0.00702 µM
# [4] = HPLM + 10% dialyzed FBS, 0.0211 µM
# [5] = HPLM + 10% dialyzed FBS, 0.0632 µM
# [6] = HPLM + 10% dialyzed FBS, 0.19 µM
# [7] = HPLM + 10% dialyzed FBS, 0.569 µM
# [8] = HPLM + 10% dialyzed FBS, 1.71 µM
# [9] = HPLM + 10% dialyzed FBS, 5.12 µM
# [10] = HPLM + 10% dialyzed FBS, 15.4 µM
# [11] = HPLM + 10% dialyzed FBS, 46.1 µM
# [12] = RPMI 5 mM glucose + 10% FBS, 0.000781 µM
# [13] = RPMI 5 mM glucose + 10% FBS, 0.00234 µM
# [14] = RPMI 5 mM glucose + 10% FBS, 0.00702 µM
# [15] = RPMI 5 mM glucose + 10% FBS, 0.0211 µM
# [16] = RPMI 5 mM glucose + 10% FBS, 0.0632 µM
# [17] = RPMI 5 mM glucose + 10% FBS, 0.19 µM
# [18] = RPMI 5 mM glucose + 10% FBS, 0.569 µM
# [19] = RPMI 5 mM glucose + 10% FBS, 1.71 µM
# [20] = RPMI 5 mM glucose + 10% FBS, 5.12 µM
# [21] = RPMI 5 mM glucose + 10% FBS, 15.4 µM
# [22] = RPMI 5 mM glucose + 10% FBS, 46.1 µM
# [23] = RPMI 5 mM glucose + 10% dialyzed FBS, 0.000781 µM
# [24] = RPMI 5 mM glucose + 10% dialyzed FBS, 0.00234 µM
# [25] = RPMI 5 mM glucose + 10% dialyzed FBS, 0.00702 µM
# [26] = RPMI 5 mM glucose + 10% dialyzed FBS, 0.0211 µM
# [27] = RPMI 5 mM glucose + 10% dialyzed FBS, 0.0632 µM
# [28] = RPMI 5 mM glucose + 10% dialyzed FBS, 0.19 µM
# [29] = RPMI 5 mM glucose + 10% dialyzed FBS, 0.569 µM
# [30] = RPMI 5 mM glucose + 10% dialyzed FBS, 1.71 µM
# [31] = RPMI 5 mM glucose + 10% dialyzed FBS, 5.12 µM
# [32] = RPMI 5 mM glucose + 10% dialyzed FBS, 15.4 µM
# [33] = RPMI 5 mM glucose + 10% dialyzed FBS, 46.1 µM
SMILES,cell viability [1],cell viability [2],cell viability [3],cell viability [4],cell viability [5],cell viability [6],cell viability [7],cell viability [8],cell viability [9],cell viability [10],cell viability [11],cell viability [12],cell viability [13],cell viability [14],cell viability [15],cell viability [16],cell viability [17],cell viability [18],cell viability [19],cell viability [20],cell viability [21],cell viability [22],cell viability [23],cell viability [24],cell viability [25],cell viability [26],cell viability [27],cell viability [28],cell viability [29],cell viability [30],cell viability [31],cell viability [32],cell viability [33]
CN[C@@H]1[C@@H](O)[C@@H](O[C@@H]2[C@@H](O)[C@H](O[C@H]3O[C@H](CN)[C@@H](O)[C@H](O)[C@H]3O)[C@@H](N)C[C@H]2NC(=O)[C@@H](O)CN)OC[C@]1(C)O,123%,131%,124%,122%,128%,120%,126%,113%,110%,108%,108%,–,–,–,–,–,–,–,–,–,–,–,–,–,–,–,–,–,–,–,–,–,–
CC(C)(C#N)c1cc(Cn2cncn2)cc(C(C)(C)C#N)c1,120%,119%,117%,119%,117%,116%,115%,115%,113%,108%,97%,130%,118%,121%,129%,120%,124%,128%,131%,113%,112%,112%,–,–,–,–,–,–,–,–,–,–,–
NNCCc1ccccc1,116%,123%,118%,115%,118%,116%,115%,113%,113%,106%,95.3%,120%,115%,120%,117%,110%,119%,129%,128%,109%,106%,91.9%,109%,116%,116%,110%,123%,111%,112%,116%,113%,107%,96.9%
CC[C@H](NC1=C2N=C[NH]C2=NC=N1)C/3=N/C4=C(C(=CC=C4)F)C(=O)N3C5=CC=CC=C5,125%,118%,122%,131%,133%,120%,115%,118%,101%,88.9%,56.3%,114%,115%,118%,120%,128%,104%,86.6%,94.7%,78.2%,61.9%,50.2%,124%,123%,125%,132%,131%,115%,99.7%,98.7%,91.7%,70.7%,51.9%
CCC1(c2ccccc2)C(=O)NCNC1=O,103%,114%,118%,120%,120%,118%,121%,119%,116%,118%,119%,104%,111%,122%,128%,134%,127%,129%,126%,142%,143%,131%,94.5%,109%,118%,115%,120%,116%,117%,118%,126%,121%,117%
N[S+]([O-])(=O)C1=C(Cl)C=C2\N=C/N[S+]([O-])(=O)C2=C1,101%,100%,102%,97.5%,106%,108%,108%,119%,110%,106%,109%,97.3%,106%,107%,113%,117%,114%,112%,122%,115%,120%,122%,101%,96.2%,111%,115%,114%,110%,114%,100%,115%,115%,109%
Cc1c(C)n(Cc2ccc(-c3ccccc3C(=O)O)cc2)c2ccc(C(=O)N[C@@H](C)c3ccc([N+](=O)[O-])cc3)cc12,103%,105%,102%,107%,103%,109%,109%,120%,114%,25.8%,33.6%,101%,104%,102%,96.8%,112%,110%,114%,102%,113%,25.2%,25.1%,99.6%,97.5%,106%,105%,106%,101%,113%,108%,114%,25.5%,20%
CC1=C(C)C(=O)C(C(CCCCCC(=O)O)c2ccccc2)=C(C)C1=O (stereo not drawn),76.1%,91.6%,83.8%,76.4%,80.6%,84.5%,73.8%,83.9%,86.2%,84.5%,70.6%,86%,91.2%,96.2%,94.5%,103%,97.5%,82.3%,96.1%,72.9%,66.7%,56.6%,70.5%,77.9%,71.7%,84.1%,84.4%,85.8%,79.2%,80.3%,67.4%,72%,52.1%
N#CCNC(=O)c1ccc(-c2ccnc(Nc3ccc(N4CCOCC4)cc3)n2)cc1,98.6%,108%,118%,114%,110%,110%,98.8%,111%,111%,77.6%,34%,97.9%,102%,120%,115%,111%,109%,95.6%,108%,102%,65.6%,34%,115%,103%,109%,113%,109%,109%,99.5%,98.2%,97.6%,70.8%,25.3%
CNc1nc(Nc2ccc(C(=O)N3CCOCC3)cc2OC)ncc1Cl,–,–,–,–,–,–,–,–,–,–,–,120%,116%,122%,119%,120%,115%,113%,107%,108%,108%,101%,123%,115%,121%,116%,123%,125%,116%,124%,112%,109%,104%
C[C@H]1C[C@@H]2[C@H](CC[C@@]3(C)[C@H]2CC[C@]3(OC(C)=O)C(C)=O)[C@@]\4(C)CCC(=O)\C=C14,99.8%,105%,111%,107%,122%,115%,114%,107%,98.7%,95.5%,107%,112%,112%,123%,108%,113%,113%,110%,101%,94.3%,80.3%,96.3%,101%,113%,102%,107%,120%,103%,96.3%,93.7%,96%,80.1%,88.4%
Cc1nc2cnc3ccc(C#Cc4cccnc4)cc3c2n1-c1ccc(C(C)(C)C#N)cc1,84.7%,89.5%,86.4%,87.4%,63.2%,56%,58.4%,53.7%,54.2%,54.4%,41%,65.6%,84.1%,78.1%,88.3%,49.1%,43.5%,33.5%,43.7%,36.5%,40.6%,19.9%,71.8%,80.4%,77%,89.2%,53.6%,49.6%,36.4%,36.6%,33.7%,37.6%,24.2%
O=C(c1ccc(F)cc1)N1CCC[C@H](c2nc(-c3ccc(F)cc3)no2)C1,119%,121%,120%,124%,117%,121%,116%,113%,107%,113%,106%,115%,122%,122%,128%,144%,120%,128%,116%,111%,114%,115%,120%,128%,123%,119%,117%,126%,116%,105%,118%,110%,111%
C[C@]12CC[C@H]3[C@@H](CC[C@H]4NC(=O)\C=C/[C@]34C)[C@@H]1CC[C@@H]2C(=O)NC5=CC(=CC=C5C(F)(F)F)C(F)(F)F,109%,112%,112%,111%,115%,111%,102%,104%,91.3%,107%,102%,117%,108%,114%,108%,111%,117%,110%,105%,107%,103%,104%,104%,111%,109%,108%,117%,99.2%,99.3%,98.4%,96.7%,106%,97.5%
CC1CNc2c(cccc2[S+](=O)([O-])N[C@@H](CCCNC(=N)N)C(=O)N2CC[C@@H](C)C[C@@H]2C(=O)O)C1 (stereo partly drawn),94.9%,107%,104%,100%,110%,118%,109%,111%,116%,105%,99.5%,107%,113%,108%,117%,116%,114%,111%,116%,119%,116%,98.8%,101%,110%,104%,101%,111%,107%,107%,109%,112%,103%,89.4%
C[C@@H](Oc1cc(-c2cnn(C3CCNCC3)c2)cnc1N)c1c(Cl)ccc(F)c1Cl,118%,119%,115%,118%,115%,120%,111%,95.7%,90.6%,73.5%,18.9%,116%,118%,123%,116%,124%,117%,115%,113%,82.2%,68.9%,21.4%,–,–,–,–,–,–,–,–,–,–,–
